We go through 1 compound from patent US20220000110A1, “COMPOSITIONS COMPRISING PYRIDINE CARBOXYLATE HERBICIDES AND CELLULOSE BIOSYNTHESIS INHIBITOR HERBICIDES” (priority 2018, published 2022).

In this series the test system is Triticum aestivum (spring wheat). The format is in vivo. The following applies: TRZAS. The text has this: Greenhouse Trial Methodology—Evaluation of Postemergence Herbicidal Effect
Seeds of the desired test plant species were planted in a 90:10% v/v (volume/volume) mixture of PRO-MIX® BX (Premier Tech Horticulture, Quakertown, Pa., USA) and PROFILE® GREENS GRADE™ (Profile Products LLC, Buffalo Grove, Ill., USA) planting mixture, which typically has a pH of 5.2 to 6.2 and an organic matter content of at least 50 percent, in plastic pots with a surface area of 103.2 square centimeters (cm^2). In some aspects, to help ensure good germination and healthy plants, a fungicide treatment and/or other chemical or physical treatment was applied. The plants were grown for 7-36 days (d) in a greenhouse with an approximate 14-hour (h) photoperiod which was maintained at about 23° C. during the day and 22° C. during the night. Nutrients and water were added on a regular basis and supplemental lighting was provided with overhead metal halide 1000-Watt lamps as necessary. The plants were employed for testing when they reached the second or third true leaf stage.
Emulsifiable concentrates of each of each pyridine carboxylate herbicide (Compound A or Compound B) were prepared at 100 grams acid equivalent per liter (g ae/L). The emulsifiable concentrates also included a safener, at 120 grams active ingredient per liter (g ai/L). An aliquot of each emulsifiable concentrate was placed in a 25 mL glass vial and diluted with an aqueous mixture of 1.25% (v/v) ACTIROB® B esterified rapeseed oil (Bayer Crop Science, Research Triangle Park, N.C., USA) or MSO® Concentrate with LECI-TECH® methylated soybean oil (Loveland Products, Loveland, Colo., USA) to obtain concentrated stock solutions at the highest application rate for each herbicide, based upon a 12 milliliter (mL) application volume at a rate of 187 liters per hectare (L/ha). The concentrated stock solutions were further diluted with an aqueous mixture of 1.25% v/v ACTIROB® B or MSO® Concentrate with LECI-TECH® to obtain stock solutions at reduced application rates for each herbicide. Spray solutions of the herbicide combinations (Compound A or Compound B plus the CBI herbicide) were prepared by adding weighed amounts or aliquots of the CBI herbicide to the stock solutions of Compound A or Compound B to form 12-mL spray solutions in two-way combinations.
The spray solutions were applied to the plant material with an overhead Mandel track sprayer equipped with 8002E nozzles calibrated to deliver 187 L/ha over an application area of 0.503 square meters (m^2) at a spray height of 18 inches (43 centimeters (cm)) above the average plant canopy. Control plants were sprayed in the same manner with the solvent blank. All pyridine carboxylate herbicide (component a) application rates are given as “g ae/ha” and all CBI herbicide (component b) application rates are given as “g ai/ha.”
The treated plants and control plants were placed in a greenhouse as described above and watered by sub-irrigation to prevent wash-off of the test compounds. After 20-22 d, the condition of the test plants as compared with that of the control plants was determined visually and scored on a scale of 0 to 100 percent where 0 corresponds to no injury and 100 corresponds to complete kill.

Like-named read-outs stand apart in the source and are kept apart here.

With `N#CCOC(=O)c1nc(-c2ccc3cc[nH]c3c2F)c(F)c(N)c1Cl` [Compound A, cyanomethyl 4-amino-3-chloro-5-fluoro-6-(7-fluoro-1H-indol-6-yl)pyridine-2-carboxylate], the “Obs % visual injury” value is 3% (Table 3, Compound A 7.5 g/ha); 3% (Table 3, Compound A 10 g/ha); 0% (Table 3, Compound A 15 g/ha); 3% (Table 4, Compound A 7.5 g/ha); 3% (Table 4, Compound A 10 g/ha); 0% (Table 4, Compound A 15 g/ha).
